# Measurements reported in US8614103B2, “Compositions and methods for treating sphingosine-1-phosphate (S1P) related ocular diseases and conditions” (Lpath, Inc., priority 2006, dated 2013).
# How the values were obtained:
# [1] = system: human conjunctiva fibroblasts; test: PAI-1 expression in conjunctiva fibroblasts; assay type: cell-based
# Text: Collagen is one of the primary structural proteins that supports all tissues in the body and is one of the main components of scar tissue. In the non-pathological setting, total collagen content within tissue is maintained via a balance between collagen production by fibroblasts and degradation by certain enzymes. A number of disorders that involve increased levels of scar tissue result, in part, from physiological and molecular processes that inhibit degradation of collagen that is need for scar formation. It was hypothesized that the ability of S1P to promote scar tissue formation may result from its ability to inhibit collagen degradation, thereby leading to net increases in scar tissue within organs. Therefore, the effects of S1P on expression of plasminogen activator inhibitor (PAI-1) in human conjunctiva fibroblasts were examined.
# [2] = system: human conjunctiva fibroblasts; test: α-SMA expression in conjunctiva fibroblasts; assay type: cell-based; details: only at this concentration
# Text: (§1) In many of these disorders, circulating growth factors and chemokines promote the transformation of normal ocular cells into fibrocontractile, scar tissue-producing cells that have been termed “myofibroblasts”. Normally, myofibroblasts are responsible for tissue repair as part of the wound healing response following injury. However altered number and function of myofibroblasts are implicated in diseases characterized by pathological scar tissue formation in the liver, skin, lung, kidney, heart and eyes. In the eye, transformation of retinal pigmented epithelial (RPE) cells to a myofibroblast phenotype is linked to formation of fibro-contractile membranes which cause retinal detachment and subsequent vision impairment. In addition, myofibroblast transformation of ocular fibroblasts can result in abnormal scar tissue production after eye injury leading to subsequent vision loss. Although many of the circulating protein factors in the eye that promote myofibroblast formation have been identified, nothing is known regarding the role of lysolipids such as S1P in this process. Therefore, we examined the effects of S1P on myofibroblast transformation of several human ocular cell lines.
# (§2) In these experiments, the ability of S1P to promote α-SMA expression differed in a concentration dependent manner between the retinal pigmented epithelial cells and conjunctiva fibroblasts. […]
# [3] = system: human retinal pigmented epithelial cells; test: α-SMA expression in retinal pigmented epithelial cells; assay type: cell-based; details: back to basal levels at 10 μM
# Text: as §1, §2
# COLO 205 tumor = test: SC COLO205 colorectal tumor xenograft in nude NCr mice; assay type: in vivo, mouse; details: LT1009 50 mg/kg ip q3d; Avastin 40 mg/kg iv q7d; Paclitaxel 15 mg/kg iv q1d×5
# Method: Nude mice were implanted sc near the right flank with one fragment per mouse of COLO 205 tumor from an in vivo passage. All treatments were initiated the day when 60 mice in each experiment established tumors ranging in size from approximately 100 to 200 mm3. […] Avastin was administered iv at a dosage of 40 mg/kg/dose on a q7d schedule, injected in a volume of 0.1 mL/20 g body weight. Paclitaxel (positive control), was administered iv at a dosage of 15 mg/kg/dose on a q1d×5 schedule, injected in a volume of 0.1 mL/10 g body weight.
# (§3) Animals were observed daily for mortality. Tumor dimensions and body weights were collected twice weekly starting with the first day of treatment and including the day of study termination. When the median tumor in the vehicle-treated control group in each study reached approximately 4,000 mg, the study was terminated. Tumors from each animal were harvested, wet weights were recorded, tumors were processed for determination of microvascular densities (MVD) by CD-31 staining. Tumor weights (mg) were calculated using the equation for an ellipsoid sphere (l×w^2)/2=mm^3, where l and w refer to the larger and smaller dimensions collected at each measurement and assuming unit density (1 mm^3=1 mg).
# DU145 tumor = test: SC DU145 prostate tumor xenograft in nude NCr mice; assay type: in vivo, mouse; details: LT1009 50 mg/kg ip q2d; Avastin 20 mg/kg q4d; Paclitaxel 7.5 mg/kg q1d×5
# Method: Nude mice were implanted sc near the right flank with one fragment per mouse of DU145 tumor from an in vivo passage. All treatments were initiated the day when 60 mice in each experiment established tumors ranging in size from approximately 100 to 200 mm^3. […] Paclitaxel and Avastin were administered iv and ip at a dosage of 7.5 mg/kg/dose and 20 mg/kg/dose, q1d×5 and q4d, respectively, injected in a volume of 0.1 mL/10 g body weight.
# During the course of the study tumor growth was monitored by measuring the sc tumors on three axes and calculating the volume. At the end of the study final tumor weights and volumes were determined and then the mice were sacrificed, the tumors harvested. Microvascular densities (MVD) of the tumors were then determined by CD-31 staining.
# HT29 tumor = test: SC HT29 colorectal tumor xenograft in nude NCr mice; assay type: in vivo, mouse; details: LT1009 50 mg/kg ip q2d; Avastin 20 mg/kg q4d; 5-FU 75 mg/kg q4d
# Method: Nude mice were implanted sc near the right flank with one fragment per mouse of HT29 tumor from an in vivo passage. All treatments were initiated the day when 60 mice in each experiment established tumors ranging in size from approximately 100 to 200 mm^3. There were ten mice per treatment group. […] 75 mg/kg 5-FU and 20 mg/kg Avastin were administered ip and iv at a dosage of 75 mg/kg/dose and 20 mg/kg/dose, respectively, q4d, injected in a volume of 0.1 mL/10 g body weight.
# as §3, with “recorded, and” for “recorded,”, “MVD” for “microvascular densities (MVD)”
Molecule,PAI-1 expression [1],concentration at which a significant increase in α-SMA expression was observed [2] [µM],concentration at which a significant increase in α-SMA expression was observed [3] [µM],Final Tumor Weights (COLO 205 tumor) [mg],Final Tumor Weights (DU145 tumor) [mg],% Reduction compared to Vehicle-Treated Mice (HT29 tumor) [%],Final Tumor Weights (HT29 tumor) [mg]
"CCCCCCCCCCCCC/C=C/[C@@H](O)[C@@H](N)COP(=O)(O)O [S1P, sphingosine-1-phosphate]",stimulates the PAI-1 expression in a dose-dependent manner,10,0.001,,,,
"Avastin: anti-angiogenic drug, bevacizumab (Avastin®, Genentech)",,,,1967.90,578,30,1927.44
